Measurements as given in patent US12642769B2, “Delivery carrier into cell” (Kabusikikaisya ITO, priority 2019, dated 2026).

Experiments:
Type in all cases: cell-based
[1] = tested on: LabCyte EPI-MODEL normal skin epidermis model; test: in vitro skin irritation test OECD TG-439, temperature-responsive carriers; conditions: the lower the score, the higher the toxicity; Water (negative control) 100 points
Description: In Vitro Skin Irritation Test of Cultured Cell According to OECD Guidelines. OECD
Guidelines for the Testing of Chemicals, 439. (2015)
LabCyte EPI-MODEL was used as a normal skin epidermis model, and a skin irritation test was performed and scored. As a result (the lower the score, the higher the toxicity), the score is 3 points for 5% SLS (positive control), 100 points for Water (negative control), 125 points for A-1 of the present invention, and B-1 was 101, C-1 was 89, and D-1 was 83, and the viable cell rate was 50% or higher in all the formulations. All skin irritation was denied.

[2] = tested on: LabCyte EPI-MODEL normal dermal epidermis model; test: in vitro skin irritation test OECD 439, pH-responsive carriers; conditions: the lower the score, the higher the toxicity; Water (negative control) 100 points
Description: In vitro skin irritation tests were conducted using cultured cell according to OECD guidelines. We used OECD GUIDELINES FOR THE TESTING OF CHEMICALS, 439. (2015) for guidelines. As a result of the skin irritation test using LabCyte EPI-MODEL as a normal dermal epidermis model (the lower the score, the higher the toxicity and the lower the safety), the scores were 3 points for 5% SLS (positive control) and 100 points for Water (negative control), 134 points for A-2, 109 points for B-2,95 points for C-2, and 91 points for D-2, and the percentage of viable cell was more than 50% for all the preparations and the skin irritation was denied.

[3] = tested on: LabCyte EPI-MODEL normal skin epidermis model; test: in vitro skin irritation test OECD 439, photoresponsive carriers; conditions: the higher the score, the higher the safety; Water (negative control) 100 points
Description: In vitro skin irritation tests were performed on cultured cell according to OECD guidelines. The guidelines used were OECD GUIDELINES FOR THE TESTING OF CHEMICALS, 439. (2015). LabCyte EPI-MODEL was used as a normal skin epidermis model, and a skin irritation test was performed and scored. As a result (the higher the score, the higher the safety), the score is 5% SLS (positive control) 3 points, Water (negative control) 100 points, A-1 of the present invention is 111 points, B-1 was 98 points, C-1 was 87 points, and D-1 was 79 points. The viable cell rate of all the preparations was 50% or more, and skin irritation was denied.

Measured: skin irritation test score

CCCCCCCCCCCCOS(=O)(=O)[O-].[Na+] [SLS]
3 points: all assays above
